We go through 20 molecules from BindingDB's records for doi:10.1021/acs.jmedchem.8b00931 (Umr 7273 Cnrs, 2018).

Each structure is given as a SMILES string.

Assay [1] is described as follows: Inhibition of Rhinovirus B14 capsid infected in human HeLa Rh cells assessed as reduction in virus-induced cytopathic effect after 3 days by MTS assay.
Assay [2] in a line: Inhibition of Rhinovirus A02 capsid infected in human HeLa Rh cells assessed as reduction in virus-induced cytopathic effect after 3 days by MTS assay.
Assay [3] in a line: Inhibition of Rhinovirus A89 capsid infected in human HeLa Rh cells assessed as reduction in virus-induced cytopathic effect after 3 days by MTS assay.
A short description of assay [4]: Inhibition of Rhinovirus A85 capsid infected in human HeLa Rh cells assessed as reduction in virus-induced cytopathic effect after 3 days by MTS assay. (Damage to the host cells serves as the signal in cytopathic effect assays.)
Assay [5] in a line: Inhibition of Rhinovirus A08 capsid infected in human HeLa Rh cells assessed as reduction in virus-induced cytopathic effect after 3 days by MTS assay.
A short description of assay [6]: Inhibition of Rhinovirus A28 capsid infected in human HeLa Rh cells assessed as reduction in virus-induced cytopathic effect after 3 days by MTS assay.
Assay [7] is described as follows: Inhibition of Rhinovirus B42 capsid infected in human HeLa Rh cells assessed as reduction in virus-induced cytopathic effect after 3 days by MTS assay.
A short description of assay [8]: Inhibition of Rhinovirus B70 capsid infected in human HeLa Rh cells assessed as reduction in virus-induced cytopathic effect after 3 days by MTS assay.

The EC50 is the concentration needed to bring the measured effect to its halfway point. As to `O=[N+]([O-])c1cc(-c2cccs2)ccc1CC(O)c1ccc(-c2ccncc2)cc1` (stereo not given), the EC50 in assay [1] came out at 1300 nM.
For `Cn1cc(-c2ccc(C[C@H](O)c3ccc(-n4cncn4)cc3)c([N+](=O)[O-])c2)cn1`, the EC50 in assay [1] is 60 nM; in assay [2], greater than 128 µM; in assay [3] it was greater than 128000 nM; in assay [4] it was greater than 128 µM; in assay [5], greater than 128 µM; in assay [6], greater than 128 µM. The EC50 in assay [7] was greater than 128 µM; in assay [8] it was 50 nM.
Regarding `O=[N+]([O-])c1cc(-c2cncs2)ccc1CC(O)c1ccc(-n2cncn2)cc1` (stereo not given), the EC50 in assay [1] was found to be 400 nM.
Still for that read-out and setting: in the case of `Cc1noc(C)c1-c1ccc(CC(O)c2ccc(-n3cncn3)cc2)c([N+](=O)[O-])c1` (stereo not given) it was greater than 247000 nM.
On the same count and under the same terms, in the case of `Cn1cc(-c2ccc(CC(O)c3ccc(-n4cccn4)cc3)c([N+](=O)[O-])c2)cn1` (stereo not given) it was 200 nM.
Consider `O=[N+]([O-])c1cc(-c2ccco2)ccc1CC(O)c1ccc(-c2ccncc2)cc1` (stereo not given), for which, in assay [1], the EC50 is 1200 nM.
The same measure, in the same setting: in the case of `Cn1cc(-c2ccc(CC(O)c3ccc(-n4cncn4)cc3)c([N+](=O)[O-])c2)cn1` (stereo not given) it was 180 nM.
Take `O=[N+]([O-])c1cc(Br)ccc1CC(O)c1ccc(-c2ccncc2)cc1` (stereo not given): the EC50 in assay [1] was found to be 590 nM.
As to `COC(=O)c1ccc(CC(O)c2ccc(-c3ccncc3)cc2)c([N+](=O)[O-])c1` (stereo not given), the EC50 in assay [1] amounted to 6400 nM.
For `Cn1cc(-c2ccc(C[C@@H](O)c3ccc(-n4cncn4)cc3)c([N+](=O)[O-])c2)cn1`, the EC50 in assay [1] is greater than 128000 nM; in assay [2] it was greater than 128 µM; in assay [3] it was 1500 nM; in assay [4] it was greater than 128 µM; in assay [5], greater than 128 µM; in assay [6] it was greater than 128 µM. Moreover, the values for the EC50 in assay [7] and in assay [8] were greater than 128 µM and greater than 20000 nM, respectively.
`O=[N+]([O-])c1cc(Br)ccc1CC(O)c1ccc(-n2cccn2)cc1` (stereo not given): the EC50 in assay [1] is 250 nM.
The same measure, in the same setting: as for `Cc1noc(C)c1-c1ccc(CC(O)c2ccc(-n3cccn3)cc2)c([N+](=O)[O-])c1` (stereo not given), the figure is greater than 247000 nM; as for `O=[N+]([O-])c1cc(Br)ccc1CC(O)c1ccc(-n2cncn2)cc1` (stereo not given), 250 nM; as for `Cn1nc(C(F)(F)F)cc1-c1ccc(CC(O)c2ccc(-c3ccncc3)cc2)c([N+](=O)[O-])c1` (stereo not given), 1000 nM.
As for `O=[N+]([O-])c1cc(Cl)ccc1CC(O)c1ccc(-n2cccn2)cc1` (stereo not given), the EC50 in assay [1] was determined as 128 nM.
On to `Cn1nc(C(F)(F)F)cc1-c1ccc(CC(O)c2ccc(-n3cccn3)cc2)c([N+](=O)[O-])c1` (stereo not given), for which the EC50 in assay [1] was determined as 500 nM.
For `Cn1cc(-c2ccc(C[C@@H](O)c3ccc(-n4cccn4)cc3)c([N+](=O)[O-])c2)cn1`, the EC50 was 2500 nM in assay [1]; greater than 128 µM in assay [2]; 190 nM in assay [3]; greater than 128 µM in assay [4]; greater than 128 µM in assay [5]; greater than 128 µM in assay [6]. Besides, the concentration giving a half-maximal response (EC50) in assay [7] was greater than 128 µM; in assay [8] it was greater than 128000 nM.
In the case of `Cc1cc(CCCOc2c(C)cc(-c3noc(C(F)(F)F)n3)cc2C)on1` [3-(3,5-dimethyl-4-(3-(3-methylisoxazol-5-yl)propoxy)phenyl)-5-(trifluoromethyl)-1,2,4-oxadiazole], the EC50 in assay [1] is 30 nM; in assay [2], 0.015 µM; in assay [3], 4 nM; in assay [4], 0.011 µM; in assay [5], 0.49 µM; in assay [6] it was 0.015 µM. Moreover, the values for the EC50 in assay [7] and in assay [8] were greater than 128 µM and 167 nM, respectively.
As for `Cn1cc(-c2ccc(C[C@H](O)c3ccc(-n4cccn4)cc3)c([N+](=O)[O-])c2)cn1`, the EC50 in assay [1] is 35 nM; in assay [2], greater than 128 µM; in assay [3], 2400 nM; in assay [4], greater than 128 µM; in assay [5], greater than 128 µM; in assay [6], greater than 128 µM. The EC50 is greater than 128 µM in assay [7] and 17 nM in assay [8].
As for `O=[N+]([O-])c1cc(F)ccc1CC(O)c1ccc(-n2cccn2)cc1` (stereo not given), the EC50 in assay [1] was 8700 nM.
